In the test the target is recombinant human DHODH (Homo sapiens, UniProt Q02127). The test is described as follows: Endpoint DHODH enzyme assay (coenzyme Q10, DCIP). Format: biochemical. Also noted: purchased Prospecbio ENZ-642. The following applies: compound at 10 µM. As for the experimental part: In Supplementary Tables 5 and 6, endpoint assays were performed with 10 nM recombinant human DHODH (#ENZ-642, Prospecbio). The reaction mixture consisted of 624.6 µM DL-dihydroorotic acid, 66.4 µM coenzyme Q10, 66.4 µM 2,6-dichlorophenolindophenol sodium salt (DCIP) (all reagents purchased from Sigma-Aldrich) in enzyme buffer (50 mM Tris-HCl, pH 8.0, 0.1% Triton X-100, 150 mM KCl). Loss in absorbance by DCIP was measured at 595 nm after incubation at RT for 60 min.
Chain of recombinant human DHODH (Q02127 31-395 limits assumed): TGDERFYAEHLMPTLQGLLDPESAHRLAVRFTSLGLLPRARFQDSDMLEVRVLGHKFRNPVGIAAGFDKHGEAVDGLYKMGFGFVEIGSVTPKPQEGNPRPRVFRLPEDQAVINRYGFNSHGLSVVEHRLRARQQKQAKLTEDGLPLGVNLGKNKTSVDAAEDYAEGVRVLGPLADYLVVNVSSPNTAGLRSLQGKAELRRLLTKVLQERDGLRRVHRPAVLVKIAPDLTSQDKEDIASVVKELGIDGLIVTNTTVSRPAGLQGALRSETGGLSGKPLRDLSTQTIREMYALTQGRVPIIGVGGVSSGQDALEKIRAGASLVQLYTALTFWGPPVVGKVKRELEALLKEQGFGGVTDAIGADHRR

Where [1] appears, read: Supplementary Table 5, 20,000 compound library.
The mark [2] stands for this setting: Supplementary Table 6, 30,000 compound library.

Where a name gives a salt, the structure may show the parent alone.

For the compound `COc1cccc(-c2noc(-c3ccc(N4C[C@H]5CC[C@H]4C5)nc3)n2)c1OC` (relative stereo) [compound 75901793, (1S*,4S*)-2-{5-[3-(2,3-dimethoxyphenyl)-1,2,4-oxadiazol-5-yl]-2-pyridinyl}-2-azabicyclo[2.2.1]heptane], under setting [1], the “remaining DHODH activity (%) Average” value is listed as 5.94%.

As for `Cc1cccn(CC(=O)c2ccc(-c3ccccc3)cc2)c1=N` [compound 5120580, 1-(4-biphenylyl)-2-(2-imino-3-methyl-1(2H)-pyridinyl)ethanone hydrobromide], under setting [2], the remaining activity at 10 µM was 19.2%.

As to `O=C(Nc1ccc2ccccc2c1)C12CC3CC(CC(C3)C1)C2` [compound 5135537, N-2-naphthyl-1-adamantanecarboxamide], under setting [1], the remaining activity at 10 µM worked out at 32%.

`COCCOC(=O)Nc1nc2sc3c(c2s1)CCCC3` [compound 5175570, 2-methoxyethyl 5,6,7,8-tetrahydro[1]benzothieno[2,3-d][1,3]thiazol-2-ylcarbamate]: under setting [2], the remaining activity at 10 µM amounted to 101%.

For the compound `CCN(CC)c1ccc2cc(-c3nc4ccccc4n3C)c(=O)oc2c1` [compound 5213776, 7-(diethylamino)-3-(1-methyl-1H-benzimidazol-2-yl)-2H-chromen-2-one], the remaining activity at 10 µM under setting [2] is 96.8%.

Consider `CCN(CC)c1ccc2cc(-c3nc4ccccc4o3)c(=O)oc2c1` [compound 5213777, 3-(1,3-benzoxazol-2-yl)-7-(diethylamino)-2H-chromen-2-one], for which, under setting [2], the remaining activity at 10 µM was 92.1%.

On to `COc1ccccc1NC1=CC(=O)CC(c2ccccc2)C1` (centres unmarked) [compound 5220809, 3-[(2-methoxyphenyl)amino]-5-phenyl-2-cyclohexen-1-one], for which the remaining activity at 10 µM under setting [2] is 100%.

On to `O=C1NC(c2ccc3ccccc3c2)Nc2sc3c(c21)CCCC3` (centres unmarked) [compound 5232020, 2-(2-naphthyl)-2,3,5,6,7,8-hexahydro[1]benzothieno[2,3-d]pyrimidin-4(1H)-one], for which the remaining activity at 10 µM under setting [2] was determined as 43.5%.

As for `O=C1C(O)=C(c2ccc(-c3ccccc3)cc2)C(=O)c2ccccc21` [compound 5248918, 2-(4-biphenylyl)-3-hydroxynaphthoquinone], the “remaining DHODH activity (%) Average” value under setting [2] is -1.54%.

Turning to `O=C(NN=Cc1ccc(Br)cc1)C1COc2ccccc2O1` (centres unmarked) [compound 5249701, N'-(4-bromobenzylidene)-2,3-dihydro-1,4-benzodioxine-2-carbohydrazide], the remaining activity at 10 µM under setting [2] stood at 100%.

Consider `CCOC(=O)c1c(-c2ccccc2)csc1NC(=O)c1cc(OC)c(OC)c(OC)c1` [compound 5264537, ethyl 4-phenyl-2-[(3,4,5-trimethoxybenzoyl)amino]-3-thiophenecarboxylate], for which, under setting [1], the remaining activity at 10 µM came out at 82.9%.

In the case of `Brc1ccc2[nH]c3c(c2c1)CCCC3NCCc1ccccc1` (centres unmarked) [compound 5265927, 6-bromo-N-(2-phenylethyl)-2,3,4,9-tetrahydro-1H-carbazol-1-amine hydrochloride], the remaining activity at 10 µM under setting [2] came to 55.7%.

As for `Oc1ccccc1C=Nc1ccc2cc3ccc(N=Cc4ccccc4O)cc3nc2c1` [compound 5267938, 2,2'-[3,6-acridinediylbis(nitrilomethylylidene)]diphenol], the “remaining DHODH activity (%) Average” value under setting [2] is given as 98.57%.

Take `COc1ccccc1N1CCN(C(=O)c2ccc(Cl)c([N+](=O)[O-])c2)CC1` [compound 5276937, 1-(4-chloro-3-nitrobenzoyl)-4-(2-methoxyphenyl)piperazine]: the remaining activity at 10 µM under setting [2] amounted to 97.5%.

On to `COc1ccccc1N1C(=O)C(=C2C(=O)Nc3ccc(Br)cc32)SC1=S` [compound 5284467, 5-bromo-3-[3-(2-methoxyphenyl)-4-oxo-2-thioxo-1,3-thiazolidin-5-ylidene]-1,3-dihydro-2H-indol-2-one], for which, under setting [2], the “remaining DHODH activity (%) Average” value worked out at 98.93%.

As to `Nc1cccc2c1C(=O)c1cccc(NC(=O)c3ccccc3)c1C2=O` [compound 5301107, N-(5-amino-9,10-dioxo-9,10-dihydro-1-anthracenyl)benzamide], the remaining activity at 10 µM under setting [2] amounted to 100%.

As for `Cc1ccc2[nH]c3c(c2c1)CCCC3NC1CCCCC1` (centres unmarked) [compound 5303009, N-cyclohexyl-6-methyl-2,3,4,9-tetrahydro-1H-carbazol-1-amine], the remaining activity at 10 µM under setting [2] stood at 12.6%.

Consider `O=C(NN=CC(Br)=Cc1ccccc1)c1n[nH]c2c1CCC2` [compound 5313702, N'-(2-bromo-3-phenyl-2-propen-1-ylidene)-1,4,5,6-tetrahydrocyclopenta[c]pyrazole-3-carbohydrazide], for which, under setting [2], the “remaining DHODH activity (%) Average” value is recorded as 92.49%.

In the case of `Cc1ccccc1C=Nc1ccccc1C(N)=O` [compound 5320101, 2-[(2-methylbenzylidene)amino]benzamide], the remaining activity at 10 µM under setting [2] was 101%.

On to `NC(=O)c1ccccc1N=Cc1cccc(Cl)c1` [compound 5321611, 2-[(3-chlorobenzylidene)amino]benzamide], for which the remaining activity at 10 µM under setting [2] was 97.6%.

`O=c1c(Cl)c(Cl)cnn1-c1ccc(Cl)c(C(F)(F)F)c1` [compound 5344759, 4,5-dichloro-2-[4-chloro-3-(trifluoromethyl)phenyl]-3(2H)-pyridazinone]: the remaining activity at 10 µM under setting [2] was 98.8%.

Turning to `O=C(NN=Cc1ccc(O)cc1)c1cc(-c2ccccc2)nc2ccccc12` [compound 5347717, N'-(4-hydroxybenzylidene)-2-phenyl-4-quinolinecarbohydrazide], the remaining activity at 10 µM under setting [2] is 8.96%.

Consider `O=C(Nc1cc(Cl)ccc1Cl)c1ccc([N+](=O)[O-])o1` [compound 5351342, N-(2,5-dichlorophenyl)-5-nitro-2-furamide], for which the remaining activity at 10 µM under setting [1] stood at 90.4%.

Regarding `COc1ccc(S(=O)(=O)Nc2ccc(I)cc2C)cc1` [compound 5351654, N-(4-iodo-2-methylphenyl)-4-methoxybenzenesulfonamide], the remaining activity at 10 µM under setting [2] was found to be 99.2%.

On to `CCc1ccc(NC(=O)c2ccc([N+](=O)[O-])o2)cc1` [compound 5351720, N-(4-ethylphenyl)-5-nitro-2-furamide], for which the remaining activity at 10 µM under setting [1] worked out at 73.5%.

Turning to `COc1ccc(Cl)cc1NC(=O)c1ccc([N+](=O)[O-])o1` [compound 5356839, N-(5-chloro-2-methoxyphenyl)-5-nitro-2-furamide], the remaining activity at 10 µM under setting [1] was 83.8%.

As to `c1ccc(NN=C2CCc3ccccc3N2)cc1` [compound 5373649, 3,4-dihydro-2(1H)-quinolinone phenylhydrazone hydrochloride], the remaining activity at 10 µM under setting [2] was found to be 101%.

Turning to `NN=C1CCCc2c1[nH]c1ccc(Br)cc21` [compound 5373779, 6-bromo-2,3,4,9-tetrahydro-1H-carbazol-1-one hydrazone], the remaining activity at 10 µM under setting [2] came to 58.2%.

For the compound `Cc1ccc(C=NNC(=O)c2c(C)nc3ccc(Cl)cn23)cc1` [compound 5378429, 6-chloro-2-methyl-N'-(4-methylbenzylidene)imidazo[1,2-a]pyridine-3-carbohydrazide], the remaining activity at 10 µM under setting [2] was found to be 100%.

With `Cc1ccc(OCC(=O)NN=Cc2ccc(-c3ccc(Br)cc3)o2)cc1` [compound 5472837, N'-{[5-(4-bromophenyl)-2-furyl]methylene}-2-(4-methylphenoxy)acetohydrazide], the remaining activity at 10 µM under setting [2] came out at 98.4%.

As to `O=C(NN=Cc1cccc(Oc2ccccc2)c1)c1cccc([N+](=O)[O-])c1` [compound 5545710, 3-nitro-N'-(3-phenoxybenzylidene)benzohydrazide], the remaining activity at 10 µM under setting [2] worked out at 98%.

Take `Cc1ccc(C=NNC(=O)COc2ccccc2Br)c(C)c1` [compound 5554099, 2-(2-bromophenoxy)-N'-(2,4-dimethylbenzylidene)acetohydrazide]: under setting [2], the remaining activity at 10 µM was 78.1%.

For `COc1ccc(CNc2ccc(Br)c(C)c2)cc1Br` [compound 5561538, (3-bromo-4-methoxybenzyl)(4-bromo-3-methylphenyl)amine], under setting [2], the remaining activity at 10 µM turned out to be 42.5%.

Turning to `O=c1[nH]c(C=Cc2ccccc2)nc2sc3c(c12)CCCC3` [compound 5625039, 2-(2-phenylvinyl)-5,6,7,8-tetrahydro[1]benzothieno[2,3-d]pyrimidin-4(3H)-one], under setting [2], the remaining activity at 10 µM is 98.4%.

In the case of `Cn1c2ccccc2n2c(C(O)C(Cl)(Cl)Cl)c(-c3ccccc3)nc12` (centres unmarked) [compound 5650027, 2,2,2-trichloro-1-(9-methyl-2-phenyl-9H-imidazo[1,2-a]benzimidazol-3-yl)ethanol], the remaining activity at 10 µM under setting [2] is 68.4%.

Take `Cc1ccc2[nH]c3c(c2c1)CCCC3NC=C1C(=O)CC(C)(C)CC1=O` (centres unmarked) [compound 5666613, 5,5-dimethyl-2-{[(6-methyl-2,3,4,9-tetrahydro-1H-carbazol-1-yl)amino]methylene}-1,3-cyclohexanedione]: the “remaining DHODH activity (%) Average” value under setting [2] came out at 92.20%.

`O=C1Nc2ccccc2C1=CNC1CCCc2c1[nH]c1ccccc21` (centres unmarked) [compound 5666718, 3-[(2,3,4,9-tetrahydro-1H-carbazol-1-ylamino)methylene]-1,3-dihydro-2H-indol-2-one]: under setting [2], the remaining activity at 10 µM was determined as 48.5%.

For the compound `O=C(Nc1nc2ccccc2s1)C1c2ccccc2Oc2ccccc21` [compound 5704541, N-1,3-benzothiazol-2-yl-9H-xanthene-9-carboxamide], under setting [2], the remaining activity at 10 µM came to 71%.

Consider `COc1ccc2c(c1)c(C=Cc1nc3ccccc3c(=O)[nH]1)c(C)n2C` [compound 5705453, 2-[2-(5-methoxy-1,2-dimethyl-1H-indol-3-yl)vinyl]-4(3H)-quinazolinone], for which the remaining activity at 10 µM under setting [2] was found to be 66.1%.

As for `CN(C)c1ccc(C=Cc2nc3ccccc3c(=O)[nH]2)cc1` [compound 5705506, 2-{2-[4-(dimethylamino)phenyl]vinyl}-4(3H)-quinazolinone], the remaining activity at 10 µM under setting [2] was 82.5%.

As for `CCOc1ccc(S(=O)(=O)Nc2cc(Br)c3oc(C)c(C(C)=O)c3c2)cc1` [compound 5754791, N-(3-acetyl-7-bromo-2-methyl-1-benzofuran-5-yl)-4-ethoxybenzenesulfonamide], the remaining activity at 10 µM under setting [2] was 96.8%.

(Values after paper PMC5856786, “A DHODH inhibitor increases p53 synthesis and enhances tumor cell killing by p53 degradation blockage” (Nature Communications, 2018).)
